Laboratory results: ChEMBL document CHEMBL1201862, “PubChem BioAssay data set” (2004)
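Results reflect a 48-hour exposure of cells in 96-well plates to compound at five concentrations. The concentration for 50% growth inhibition is given as GI50.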 Activity calls are given as the source filed them. No stated cut-off is given here; in the data, active = GI50 up to about 1.1 µM and inactive = higher. Non-standard residues stand in square brackets, D forms with d. Residues, ends and D or L forms follow the SMILES beside them.

What was measured:
Assay in all cases: growth of human tumour cells (NCI), 48 h
786-0 = system: 786-0
A498 = system: A498
A549 = system: A549
ACHN = system: ACHN
BT-549 = system: BT-549
CAKI-1 = system: CAKI-1
CCRF-CEM = system: CCRF-CEM
COLO 205 = system: COLO 205
DLD-1 = system: DLD-1
DMS-114 = system: DMS-114
DMS-273 = system: DMS-273
DU-145 = system: DU-145
EKVX = system: EKVX
HCC 2998 = system: HCC 2998
HCT-116 = system: HCT-116
HCT-15 = system: HCT-15
HL-60 = system: HL-60
HOP-18 = system: HOP-18
HOP-62 = system: HOP-62
HOP-92 = system: HOP-92
HT-29 = system: HT-29
Hs-578T = system: Hs-578T
IGROV-1 = system: IGROV-1
K562 = system: K562
KM-20L2 = system: KM-20L2
KM12 = system: KM12
LOX IMVI = system: LOX IMVI
LXFL 529 = system: LXFL 529
M14 = system: M14
M19-MEL = system: M19-MEL
MCF7 = system: MCF7
MDA-MB-231 = system: MDA-MB-231
MDA-MB-435 = system: MDA-MB-435
MDA-N = system: MDA-N
MOLT-4 = system: MOLT-4
Malme-3M = system: Malme-3M
NCI-H226 = system: NCI-H226
NCI-H23 = system: NCI-H23
NCI-H460 = system: NCI-H460
NCI-H522 = system: NCI-H522
NCI/ADR-RES = system: NCI/ADR-RES
OVCAR-3 = system: OVCAR-3
OVCAR-4 = system: OVCAR-4
OVCAR-5 = system: OVCAR-5
OVCAR-8 = system: OVCAR-8
PC-3 = system: PC-3
RPMI-8226 = system: RPMI-8226
RXF 393 = system: RXF 393
SF-268 = system: SF-268
SF-295 = system: SF-295
SF-539 = system: SF-539
SK-MEL-28 = system: SK-MEL-28
SK-MEL-2 = system: SK-MEL-2
SK-MEL-5 = system: SK-MEL-5
SK-OV-3 = system: SK-OV-3
SN12C = system: SN12C
SNB-19 = system: SNB-19
SNB-75 = system: SNB-75
SNB-78 = system: SNB-78
SR = system: SR
SW-620 = system: SW-620
T47D = system: T47D
TK-10 = system: TK-10
U-251 = system: U-251
UACC-257 = system: UACC-257
UACC-62 = system: UACC-62
UO-31 = system: UO-31
XF498 = system: XF498

**Q.** What does the source list for `CCCCCCCCCCCC[C@@H](O)[C@H]1CC[C@H]([C@H](O)CCCC[C@H](O)CCCCC[C@@H](O)CC2=C[C@H](C)OC2=O)O1`?
**A.** GI50 (786-0): 2.82 µM (inactive); GI50 (A498): 3.55 µM (inactive); GI50 (A549): 1.29 µM (inactive); GI50 (ACHN): 116 nM (active); GI50 (BT-549): 10 µM (inactive); GI50 (CAKI-1): 2.64 µM (inactive); GI50 (CCRF-CEM): 1.18 µM (inactive); GI50 (COLO 205): 1.75 µM (inactive); GI50 (DLD-1): 2.67 µM (inactive); GI50 (DMS-114): < 10 nM (active); GI50 (DMS-273): 1.57 µM (inactive); GI50 (DU-145): 6.4 µM (inactive); GI50 (EKVX): 0.562 µM (active); GI50 (HCC 2998): 3.43 µM (inactive); GI50 (HCT-116): 0.135 µM (active); GI50 (HCT-15): 2390 nM; GI50 (HL-60): 0.103 µM (active); GI50 (HOP-18): 3.23 µM (inactive); GI50 (HOP-62): 2.59 µM (inactive); GI50 (HOP-92): 2.34 µM (inactive); GI50 (HT-29): 2.1 µM (inactive); GI50 (Hs-578T): 3.17 µM (inactive); GI50 (IGROV-1): 0.61 µM (active); GI50 (K562): 0.213 µM (active); GI50 (KM-20L2): 2.19 µM (inactive); GI50 (KM12): 3.35 µM (inactive); GI50 (LOX IMVI): 1.19 µM (inactive); GI50 (LXFL 529): 1.84 µM (inactive); GI50 (M14): 2.45 µM (inactive); GI50 (M19-MEL): 1.69 µM (inactive); GI50 (MCF7): 1.64 µM (inactive); GI50 (MDA-MB-231): 3.31 µM (inactive); GI50 (MDA-MB-435): 1.98 µM (inactive); GI50 (MDA-N): 2.08 µM (inactive); GI50 (MOLT-4): 0.363 µM (active); GI50 (Malme-3M): 2.09 µM (inactive); GI50 (NCI-H226): 3.11 µM (inactive); GI50 (NCI-H23): 0.034 µM (active); GI50 (NCI-H460): 2.07 µM (inactive); GI50 (NCI-H522): 0.565 µM (active); GI50 (NCI/ADR-RES): 1.25 µM (inactive); GI50 (OVCAR-3): 0.569 µM (active); GI50 (OVCAR-4): 0.931 µM (active); GI50 (OVCAR-5): 1.18 µM (inactive); GI50 (OVCAR-8): 3.74 µM (inactive); GI50 (PC-3): 1.53 µM (inactive); GI50 (RPMI-8226): 0.362 µM (active); GI50 (RXF 393): 3.55 µM (inactive); GI50 (SF-268): 1.86 µM (inactive); GI50 (SF-295): < 0.0486 µM (active); GI50 (SF-539): 2.97 µM (inactive); GI50 (SK-MEL-28): 2.8 µM (inactive); GI50 (SK-MEL-2): 0.867 µM (active); GI50 (SK-MEL-5): 0.0143 µM (active); GI50 (SK-OV-3): 4.03 µM (inactive); GI50 (SN12C): 3.78 µM (inactive); GI50 (SNB-19): 2.83 µM (inactive); GI50 (SNB-75): 2.92 µM (inactive); GI50 (SNB-78): 3.95 µM (inactive); GI50 (SR): 2.54 µM (inactive); GI50 (SW-620): 3.22 µM (inactive); GI50 (T47D): 2.39 µM (inactive); GI50 (TK-10): 3.07 µM (inactive); GI50 (U-251): 2.78 µM (inactive); GI50 (UACC-257): 0.0168 µM (active); GI50 (UACC-62): 1.87 µM (inactive); GI50 (UO-31): 1.05 µM (active)

**Q.** Which GI50 (A498) does the source give for `CC(C)C[C@H](NC(=O)[C@H](CC(C)C)NC(=O)[C@@H](Cc1c[nH]c2ccccc12)NC(=O)[C@H](Cc1ccccc1)NC(=O)[C@@H](Cc1c[nH]c2ccccc12)NC(=O)[C@H](CCC(N)=O)NC(=O)[C@H](CCC(N)=O)NC(=O)[C@H]1CCCN1C(=O)[C@@H](N)CCCCN)C(N)=O` (H-K[dP]QQ[dW]F[dW]LL-NH2) here?
**A.** > 100 µM (inactive)

**Q.** What about the GI50 (A549) of the same molecule?
**A.** > 100 µM (inactive)

**Q.** And the GI50 (CCRF-CEM)?
**A.** > 100 µM (inactive)

**Q.** What about the GI50 (COLO 205) of the same molecule?
**A.** > 100 µM (inactive)

**Q.** And the GI50 (DLD-1)?
**A.** > 100 µM (inactive)

**Q.** What about the GI50 (DMS-273) of the same molecule?
**A.** > 100 µM (inactive)

**Q.** What about the GI50 (EKVX) of the same molecule?
**A.** > 100 µM (inactive)

**Q.** What about the GI50 (HCC 2998) of the same molecule?
**A.** > 100 µM (inactive)

**Q.** What about the GI50 (HCT-116) of the same molecule?
**A.** > 100 µM (inactive)

**Q.** And the GI50 (HCT-15)?
**A.** > 100000 nM

**Q.** And the GI50 (HL-60)?
**A.** > 100 µM (inactive)

**Q.** What about the GI50 (HOP-18) of the same molecule?
**A.** > 100 µM (inactive)

**Q.** And the GI50 (HOP-62)?
**A.** > 100 µM (inactive)

**Q.** What about the GI50 (HOP-92) of the same molecule?
**A.** > 100 µM (inactive)

**Q.** What about the GI50 (HT-29) of the same molecule?
**A.** > 100 µM (inactive)

**Q.** And the GI50 (IGROV-1)?
**A.** > 100 µM (inactive)

**Q.** And the GI50 (K562)?
**A.** > 100 µM (inactive)

**Q.** What about the GI50 (KM-20L2) of the same molecule?
**A.** > 100 µM (inactive)

**Q.** And the GI50 (KM12)?
**A.** > 100 µM (inactive)

**Q.** What about the GI50 (LOX IMVI) of the same molecule?
**A.** > 100 µM (inactive)

**Q.** What about the GI50 (M19-MEL) of the same molecule?
**A.** > 100 µM (inactive)

**Q.** What about the GI50 (MCF7) of the same molecule?
**A.** > 100 µM (inactive)

**Q.** What about the GI50 (MOLT-4) of the same molecule?
**A.** > 100 µM (inactive)

**Q.** What about the GI50 (Malme-3M) of the same molecule?
**A.** > 100 µM (inactive)

**Q.** And the GI50 (NCI-H226)?
**A.** > 100 µM (inactive)

**Q.** What about the GI50 (NCI-H23) of the same molecule?
**A.** > 100 µM (inactive)

**Q.** What about the GI50 (NCI-H460) of the same molecule?
**A.** > 100 µM (inactive)

**Q.** What about the GI50 (NCI-H522) of the same molecule?
**A.** > 100 µM (inactive)

**Q.** And the GI50 (NCI/ADR-RES)?
**A.** > 100 µM (inactive)

**Q.** And the GI50 (OVCAR-3)?
**A.** > 100 µM (inactive)

**Q.** And the GI50 (OVCAR-4)?
**A.** > 100 µM (inactive)

**Q.** What about the GI50 (OVCAR-5) of the same molecule?
**A.** > 100 µM (inactive)

**Q.** What about the GI50 (OVCAR-8) of the same molecule?
**A.** > 100 µM (inactive)

**Q.** What about the GI50 (RPMI-8226) of the same molecule?
**A.** > 100 µM (inactive)

**Q.** What about the GI50 (RXF 393) of the same molecule?
**A.** > 100 µM (inactive)

**Q.** What about the GI50 (SF-268) of the same molecule?
**A.** > 100 µM (inactive)

**Q.** What about the GI50 (SF-295) of the same molecule?
**A.** > 100 µM (inactive)

**Q.** What about the GI50 (SF-539) of the same molecule?
**A.** > 100 µM (inactive)

**Q.** What about the GI50 (SK-MEL-28) of the same molecule?
**A.** > 100 µM (inactive)

**Q.** What about the GI50 (SK-MEL-2) of the same molecule?
**A.** > 100 µM (inactive)

**Q.** What about the GI50 (SK-MEL-5) of the same molecule?
**A.** > 100 µM (inactive)

**Q.** What about the GI50 (SK-OV-3) of the same molecule?
**A.** > 100 µM (inactive)

**Q.** And the GI50 (SN12C)?
**A.** > 100 µM (inactive)

**Q.** What about the GI50 (SNB-19) of the same molecule?
**A.** > 100 µM (inactive)

**Q.** What about the GI50 (SNB-75) of the same molecule?
**A.** > 100 µM (inactive)

**Q.** What about the GI50 (SNB-78) of the same molecule?
**A.** > 100 µM (inactive)

**Q.** What about the GI50 (SW-620) of the same molecule?
**A.** > 100 µM (inactive)

**Q.** What about the GI50 (U-251) of the same molecule?
**A.** > 100 µM (inactive)

**Q.** What about the GI50 (UACC-257) of the same molecule?
**A.** > 100 µM (inactive)

**Q.** What about the GI50 (UACC-62) of the same molecule?
**A.** > 100 µM (inactive)

**Q.** What about the GI50 (UO-31) of the same molecule?
**A.** > 100 µM (inactive)

**Q.** What about the GI50 (XF498) of the same molecule?
**A.** > 100 µM (inactive)
